Reference: PMC6268433, “New Sorafenib Derivatives: Synthesis, Antiproliferative Activity Against Tumour Cell Lines and Antimetabolic Evaluation” (Molecules, 2012)

Columns and labels:
H 460 (lung carcinoma) = experiment: Cytostatic activity, MTT assay; format: cell-based, human; settings: Homo sapiens, NCI-H460, 72 h, read-out: Tumour cell growth/IC50 H 460
Protocol: (§1) The experiments were carried out on six human tumour and one murine cell lines, which are derived from five solid tumour types and two (one murine and one human) suspension tumour cell lines. The following cell lines were used: HCT 116 (colon carcinoma), SW 620 (colon carcinoma), MCF-7 (breast carcinoma), H 460 (lung carcinoma), L1210 (murine leukemia), CEM (human lymphoma) and HeLa (cervix carcinoma). […] Compounds 3d and 3e with a benzene ring in the amide moiety, exerted a somewhat stronger (but still rather poor) cytostatic effect (IC50 ≈ 20-90 µM). […] The compounds were also equally cytostatic against primary human embryonic lung (HEL) fibroblast cells (Table 2). The obtained data clearly point to the obligatory presence of the [4-chloro-3-(trifluoromethyl)phenyl]carbamoyl group being crucial for high potency. Also, the 4a–e series of compounds are far more lipophilic than the 2 and 3 series of compounds, which may be related to their increased cytostatic potential.
(§2) HCT 116, SW 620, MCF-7, and H 460 cells were cultured as monolayers and maintained in Dulbecco’s modified Eagle medium (DMEM), supplemented with 10% fetal bovine serum (FBS), 2 mmol·L^–1 L-glutamine, 100 U·mL^–1 penicillin and 100 μg·mL^–1 streptomycin in a humidified atmosphere with 5% CO2 at 37 °C. The growth inhibition activity was assessed as described previously, according to the slightly modified procedure of the National Cancer Institute, Developmental Therapeutics Program. Briefly, the cells were seeded onto standard 96-well microtiter plates on day 0. The cell concentrations were adjusted according to the cell population doubling time (PDT): 3000 cells/well for HCT116 and SW 620 cell lines (PDT = 20–24 h) and 4,000 cells/well for MCF-7 cell lines (PDT = 33 h). Tested agents were then added in five consecutive 10-fold dilutions (10^–8 to 10^–4 mol·L^–1) and incubated for further 72 h. Working dilutions were freshly prepared on the day of testing. The solvent (DMSO) was also tested for eventual inhibitory activity by adjusting its concentration to be the same as in working concentrations (maximal concentration of DMSO was 0.25%). After 72 h of incubation, the cell growth rate was evaluated by performing the MTT assay (Promega) which detects dehydrogenase activity in viable cells. The absorbency (OD, optical density) was measured on a microplate reader at 570 nm. Each test point was performed in quadruplicate in at least three individual experiments. The results are expressed as IC50, which is the concentration necessary for 50% of inhibition. […] Each result is a mean value from three separate experiments.

[1] = tested on: HCT 116 (colon carcinoma); experiment: Cytostatic activity, MTT assay; format: cell-based, human; settings: Homo sapiens, HCT-116, 72 h, read-out: Tumour cell growth/IC50 HCT 116
Protocol: as §1, §2

MCF-7 (breast carcinoma) = experiment: Cytostatic activity, MTT assay; format: cell-based, human; settings: Homo sapiens, MCF7, 72 h, read-out: Tumour cell growth/IC50 MCF-7
Protocol: as §1, §2

SW 620 (colon carcinoma) = experiment: Cytostatic activity, MTT assay; format: cell-based, human; settings: Homo sapiens, SW-620, 72 h, read-out: Tumour cell growth/IC50 SW 620
Protocol: as §1, §2

CEM (human lymphoma) = experiment: Cytostatic activity, Coulter counter; format: cell-based; settings: Homo sapiens; 72 h, cell number by Coulter counter; read-out: Tumour cell growth/IC50 CEM
Protocol: as §1
(§3) The cytostatic activity of the tested compounds against murine leukemia L1210, human cervix carcinoma HeLa, human embrionic lung (HEL) and T-lymphocyte CEM cells was determined with cells grown in suspension (L1210, CEM) or monolayers (HeLa, HEL) in 200 µL-wells of 96-well microtiter plates (initial cell number: 5–7.5 × 10^4 cells/well). After 48 (L1210) or 72 (CEM, HeLa, HEL) h, the tumour cell number was determined by the use of a Coulter counter.

L1210 (murine leukemia) = experiment: Cytostatic activity, Coulter counter; format: cell-based; settings: Mus musculus, L1210; 48 h, cell number by Coulter counter; read-out: Tumour cell growth/IC50 L1210
Protocol: as §1, §3

[2] = tested on: primary human embryonic lung (HEL) fibroblast cells; experiment: Cytostatic activity, Coulter counter; format: cell-based; settings: Homo sapiens, Fibroblast; 72 h, cell number by Coulter counter; primary fibroblasts
Protocol: as §1, §3

HeLa (cervix carcinoma) = experiment: Cytostatic activity, Coulter counter; format: cell-based, human; settings: Homo sapiens, HeLa; 72 h, cell number by Coulter counter; read-out: Tumour cell growth/IC50 HeLa
Protocol: as §1, §3

[3] = tested on: DNA synthesis in CEM cells; experiment: Antimetabolic activity: [CH3-3H]dThd incorporation (DNA synthesis) in CEM cell cultures; format: cell-based; settings: Homo sapiens, CCRF-CEM, ~20 h, TCA-insoluble material
Text: (§4) A variety of compounds (2a, 3a, 4a with a cycloalkyl substituent directly attached to nitrogen atom, 2c, 3c, 4c with a cycloalkyl bound to nitrogen through a short spacer and 2e, 3e, 4e with an aromatic substituent) have been investigated on their inhibitory activity against DNA, RNA and protein synthesis in CEM cell cultures. The compounds were equally inhibitory to dThd (DNA synthesis), Urd (RNA synthesis) and Leu (protein synthesis) incorporation into TCA-insoluble cell material. The 2 series of compounds were least inhibitory whereas the 4 series were most inhibitory (IC50 in the lower micromolar range). Their antimetabolic IC50 values closely corresponded to their antiproliferative IC50 values. They also behaved as sorafenib in terms of antimetabolic potential (Table 3).
(§5) The procedures have been modified from previously described methods. Human CEM cells were seeded in 96-well microtiter plates at 10 × 10^4 cells/200 µL-well in the presence of serial dilutions of the tested compounds. Then, 0.25 µCi of [CH3-^3H]dThd (radiospecificity: 52 Ci/mmol) or 1 µCi of [5-^3H]Urd (radiospecificity: 26 Ci/mmol) or [4,5-^3H]Leu (radiospecificity: 160 Ci/mmol) were added and the drug-exposed tumour cell cultures further incubated at 37 °C for ~20 h. Then the content of each well was transfered to glass fiber discs (Wattman, GE Healthcare, Maidstone, UK), mounted on a manifold (Millipore, Billerica, MA, USA) and subsequently washed with PBS (to remove the radiolabel material that has not been incorporated in the cellular macromolecules), 10% and 5% trichoroacetic acid (TCA) (to precipitate DNA, RNA and proteins) and ethanol. Then, the radioactivity (TCA precipitate) associated with each disc was determined in a liquid scintillation counter (Packard, Palo Alto, CA, USA).

[4] = tested on: RNA synthesis in CEM cells; experiment: Antimetabolic activity: [5-3H]Urd incorporation (RNA synthesis) in CEM cell cultures; format: cell-based; settings: Homo sapiens, CCRF-CEM, ~20 h, TCA-insoluble material
Text: as §4, §5

[5] = tested on: protein synthesis in CEM cells; experiment: Antimetabolic activity: [4,5-3H]Leu incorporation (protein synthesis) in CEM cell cultures; format: cell-based; settings: Homo sapiens, CCRF-CEM, ~20 h, TCA-insoluble material
Text: as §4, §5

Row | IC50 (H 460 (lung carcinoma)) | IC50 [1] | IC50 (MCF-7 (breast carcinoma)) | IC50 (SW 620 (colon carcinoma)) | IC50 [3] | IC50 [4] | IC50 [5] | melting point | SMILES | IC50 (CEM (human lymphoma)) | IC50 (L1210 (murine leukemia)) | IC50 [2] | IC50 (HeLa (cervix carcinoma))
1 | 2 ± 0.2 µM | 3 ± 1 µM | 2 ± 0.1 µM | 3 ± 0.4 µM | 20.1 ± 10.9 µM | 12.2 ± 8.4 µM | 27.4 ± 12.7 µM | 156 to 160 °C | O=C(Nc1ccc(Oc2ccnc(C(=O)NCC3CCCCC3)c2)cc1)Nc1ccc(Cl)c(C(F)(F)F)c1 [Compound 4c, 4-[4-[[4-Chloro-3-(trifluoromethyl)phenyl]carbamoylamino]phenoxy]-N-cyclohexylmethyl-pyridine-2-carboxamide] | 2 ± 0.5 µM | 1.8 ± 0.3 µM | 2.9 µM | 2.7 ± 1.8 µM
2 | 2 ± 0.2 µM | 2 ± 0.8 µM | 2 ± 0.2 µM | 2 ± 0.08 µM | – | – | – | 160 to 163 °C | O=C(Nc1ccc(Oc2ccnc(C(=O)NCc3ccccc3)c2)cc1)Nc1ccc(Cl)c(C(F)(F)F)c1 [Compound 4d, 4-[4-[[4-Chloro-3-(trifluoromethyl)phenyl]carbamoylamino]phenoxy]-N-benzyl-pyridine-2-carbox-amide] | 4.3 ± 0.4 µM | 2 ± 0.4 µM | 3.1 ± 0.2 µM | 2.6 ± 0.6 µM
3 | 65 ± 33 µM | 37 ± 1 µM | ≥ 100 µM | ≥ 100 µM | – | – | – | 150 to 153 °C | Nc1ccc(Oc2ccnc(C(=O)NC3CCCCC3)c2)cc1 [Compound 3b, 4-(4-Aminophenoxy)-N-cyclohexylpyridine-2-carboxamide] | > 100 µM | 234 ± 4.5 µM | > 100 µM | > 100 µM
4 | > 100 µM | ≥ 100 µM | ≥ 100 µM | ≥ 100 µM | > 100 µM | 92.1 ± 43 µM | 70.6 ± 27.6 µM | 135 to 137 °C | Nc1ccc(Oc2ccnc(C(=O)NCC3CCCCC3)c2)cc1 [Compound 3c, 4-(4-Aminophenoxy)-N-cyclohexylmethylpyridine-2-carboxamide] | > 100 µM | 163 ± 147 µM | > 100 µM | > 100 µM
5 | 2 ± 0.2 µM | 3 ± 0.7 µM | 2 ± 0.1 µM | 2 ± 0.4 µM | 12.7 ± 9 µM | 6.6 ± 1.8 µM | 11.8 ± 7.7 µM | – | O=C(Nc1ccc(Oc2ccnc(C(=O)NCCc3ccccc3)c2)cc1)Nc1ccc(Cl)c(C(F)(F)F)c1 [Compound 4e, 4-[4-[[4-Chloro-3-(trifluoromethyl)phenyl]carbamoylamino]phenoxy]-N-phenylethyl-pyridine-2-carboxamide] | 2.5 ± 0.9 µM | 2.2 ± 0.2 µM | 4.6 ± 0.36 µM | 1.7 ± 0.2 µM
6 | 2 µM | 3 ± 0.8 µM | 2 ± 0.6 µM | 3 ± 0.2 µM | – | – | – | – | O=C(Nc1ccc(Oc2ccnc(C(=O)NC3CCCCC3)c2)cc1)Nc1ccc(Cl)c(C(F)(F)F)c1 [Compound 4b, 4-[4-[[4-Chloro-3-(trifluoromethyl)phenyl]carbamoylamino]phenoxy]-N-cyclohexyl-pyridine-2-carboxamide] | 3.6 ± 0.9 µM | 3.2 ± 1.7 µM | 3.2 ± 0.2 µM | 3 ± 0.2 µM

The remaining lines, values behind:

Row | SMILES | IC50 (H 460 (lung carcinoma)) | IC50 [1] | IC50 (MCF-7 (breast carcinoma)) | IC50 (SW 620 (colon carcinoma)) | IC50 [3] | IC50 [4] | IC50 [5] | melting point | IC50 (CEM (human lymphoma)) | IC50 (L1210 (murine leukemia)) | IC50 [2] | IC50 (HeLa (cervix carcinoma))
7 | O=C(NCc1ccccc1)c1cc(Cl)ccn1 [Compound 2d, 4-Chloro-N-benzylpyridine-2-carboxamide] | > 100 µM | ≥ 100 µM | ≥ 100 µM | 71 ± 28 µM | – | – | – | 70 to 72 °C | ≥ 100 µM | ≥ 100 µM | > 100 µM | > 100 µM
8 | O=C(NCCc1ccccc1)c1cc(Cl)ccn1 [Compound 2e, 4-Chloro-N-phenylethylpyridine-2-carboxamide] | > 100 µM | ≥ 100 µM | 57 ± 46 µM | > 100 µM | > 100 µM | > 100 µM | > 100 µM | – | > 100 µM | > 100 µM | > 100 µM | > 100 µM
9 | O=C(NC1CCCCC1)c1cc(Cl)ccn1 [Compound 2b, 4-Chloro-N-cyclohexylpyridine-2-carboxamide] | 35 ± 12 µM | > 100 µM | ≥ 100 µM | > 100 µM | – | – | – | 116 to 119 °C | > 100 µM | > 100 µM | > 100 µM | > 100 µM
10 | O=C(NCC1CCCCC1)c1cc(Cl)ccn1 [Compound 2c, 4-Chloro-N-cyclohexylmethylpyridine-2-carboxamide] | > 100 µM | ≥ 100 µM | ≥ 100 µM | ≥ 100 µM | > 100 µM | > 100 µM | > 100 µM | 107 to 108 °C | > 100 µM | > 100 µM | > 100 µM | > 100 µM
